pIC50: −log10 of the molar value.
Assays:
Microsomal stability = assay type: in vitro ADME, mouse; conditions: MLM, Test Conc. 10 µM
[1] = Single dose pharmacokinetics in SCID mice; assay type: in vivo; conditions: female, C.B-17/IcrHsd-Prkdc^scidLyst^bg (SCID), mouse, plasma; infected SCID mice, oral, 50 mg/Kg
Procedure: Female […] mice (n = 3) aged 7-8 weeks and weighing around 20 to 22 g were used for experimentation after a minimum 7 days of acclimation. Male BALB/c mice (n = 3) aged 8-10 weeks and weighing around 20 to 22 g were also used for experimentation after a minimum 7 days of acclimation. […] Feed was offered 2 h post-dose. Under mild isofluorane […], blood samples were collected by retro-orbital route into labelled centrifuge tubes containing K2EDTA anticoagulant at a concentration of 2 mg/mL of blood during the next 24 h post-dose. Collected blood samples were centrifuged at 4000 rpm for 10 min, and harvested plasma samples were stored at - 80 °C until analysis.

THP-1 = experiment: Cytotoxicity; assay type: cell-based
Cytotoxicity = assay type: cell-based; conditions: human, THP-1 cells

What does the source list for `O=C(NO)c1ccc(Cn2cc(-c3ccc(CN4CCCC4)cc3)nn2)cc1` [FNDR-20123]?
Microsomal stability (% remaining at 120 min) (Microsomal stability): 76.15%; remaining at 2 h, 10 µM (Microsomal stability; mouse, liver microsomes, read-out: Microsomal stability (% remaining at 120 min)): > 75%; AUC(0-t) [1]: 1340 ng·h/mL; Cmax [1]: 460 ng/mL; Tmax [1]: 1 h; Cytotoxicity to THP-1 cell line (THP-1): negligible cytotoxicity; pIC50 (Cytotoxicity): 3.94

Reference: publication PMC7549214 (Malaria Journal, 2020)
